Tests used:
MC38 tumor cells = assay: MC38 subcutaneous syngeneic tumor model, tumor volume by caliper; assay type: in vivo, C57BL/6 mice; design: Percent inhibition of tumor volume: concentration or dose not given beside the values; conditions: for Percent inhibition of tumor volume: vs vehicle group, negative values indicate an increase in tumor volume
Description: This Example evaluated the effectiveness of an NMDI alone and in combination with one or more immunotherapy agents for the treatment of tumor-bearing C57BL/6 mice.
Animals: Female 6-8 week old (estimated age at inoculation) C57BL/6 mice were obtained from Shanghai Lingchang Bio-Technology Co. Ltd (LC, Shanghai, China). The animals were housed at 20-26° C. with a 12 hours light and 12 hours darkness cycle.
Cell Culture: MC38 tumor cells were maintained in vitro as a monolayer culture in DMEM medium supplemented with 10% fetal bovine serum at 37° C. in an atmosphere of 5% CO2 in air. The tumor cells were routinely subcultured twice weekly. Cells in an exponential growth phase were harvested and counted for tumor inoculation.
Therapeutic compounds: Anti-PD-1 and anti-CTLA-4 antibodies were obtained from BioXCell as was an anti-CD8 antibody. The nonsense mediated decay inhibitor NMDI14 (4,5-Dimethyl-2-[[2-(1,2,3,4-tetrahydro-6,7-dimethyl-3-oxo-2-quinoxalinyl)acetyl]amino]-3-thiophenecarboxylic acid ethyl ester, Ethyl 2-{[(6,7-dimethyl-3-oxo-1,2,3,4-tetrahydro-2-quinoxalinyl)acetyl]amino}-4,5-dimethyl-3-thiophenecarboxylate) was obtained from ChemBridge Corp. (La Jolla, Calif.).
Tumor Inoculation: Each mouse was inoculated subcutaneously at the right lower flank region with MC38 tumor cells (1×10^6) in 0.1 mL of PBS for tumor development. The treatments were started when the mean tumor size reaches approximately 50 mm^3. The date of tumor cell inoculation was denoted as day 0.
Group assignment: Before grouping and treatment, all animals were weighed and the tumor volumes measured using a caliper. Tumor volume was used as numeric parameter to randomize selected animals into specified groups in order to minimize systematic error. The grouping was performed by using StudyDirector™ software (Studylog Systems, Inc. CA, USA). One optimal randomization design (generated by Matched distribution) showing minimal group to group variation in tumor volume was selected for group allocation.
After tumor cell inoculation, the animals were checked daily for morbidity and mortality as well as any effects of tumor growth and treatments on normal behavior such as mobility, visual estimation of food and water consumption, body weight gain/loss, eye/hair matting and any other abnormal effect. Tumor volumes were measured twice weekly at least in two dimensions using a caliper, and the volume expressed in mm^3 using the formula: V=0.5 a×b^2 where a and b are the long and short diameters of the tumor, respectively.

[1] = system: CD3+ immune cells infiltrating tumor tissue; assay: Immunohistochemistry of sectioned tumor tissue, immune cell infiltration; assay type: in vivo, C57BL/6 mice; conditions: FFPE tumor sections; FIG. 4
Description: Immunohistochemistry (IHC): Formalin-fixed paraffin-embedded (FFPE) tissue from tumor samples were sectioned to 4 urn. Antigen retrieval (AR) was conducted at 100° C., in EDTA buffer, at pH 9.0 for 20 min. Primary antibody (diluted with validated concentration), RT 60 min+ secondary antibody (ready-to-use), RT 60 min+Bond Polymer Refine Detection.

Question: Which results are given for `CCOC(=O)c1c(NC(=O)CC2Nc3cc(C)c(C)cc3NC2=O)sc(C)c1C` (stereo not drawn) [NMDI14, 4,5-Dimethyl-2-[[2-(1,2,3,4-tetrahydro-6,7-dimethyl-3-oxo-2-quinoxalinyl)acetyl]amino]-3-thiophenecarboxylic acid ethyl ester]?
Answer: Percent inhibition of tumor volume (MC38 tumor cells; Day 9): −0.11%; Mean tumor volume (MC38 tumor cells; Day 9 after inoculation, MC38 tumor-bearing C57BL/6 mice, i.p., NMDI14 20 mg/kg QDx3 weeks, antibodies 10 mg/kg (anti-CD8 200 ug/mouse) BIW x 3 weeks, n=8): 52.02 mm^3; Mean tumor volume (MC38 tumor cells; Day 12, same model and dosing (Table 2)): 72.22 mm^3; Percent inhibition of tumor volume (MC38 tumor cells; Day 12): 14.08%; Mean tumor volume (MC38 tumor cells; Day 15, same model and dosing (Table 2)): 135.90 mm^3; Percent inhibition of tumor volume (MC38 tumor cells; Day 15): −4.42%; Mean tumor volume (MC38 tumor cells; Day 18, same model and dosing (Table 2)): 270.73 mm^3; Percent inhibition of tumor volume (MC38 tumor cells; Day 18): 6.19%; Mean tumor volume (MC38 tumor cells; Day 22, same model and dosing (Table 2)): 405.71 mm^3; Percent inhibition of tumor volume (MC38 tumor cells; Day 22): 15.14%; Mean tumor volume (MC38 tumor cells; Day 25, same model and dosing (Table 2)): 644.91 mm^3; Percent inhibition of tumor volume (MC38 tumor cells; Day 25): 19.44%; Mean tumor volume (MC38 tumor cells; Day 29, same model and dosing (Table 2)): 999.58 mm^3; Percent inhibition of tumor volume (MC38 tumor cells; Day 29): 20.58%; Mean tumor volume (MC38 tumor cells; Day 32, same model and dosing (Table 2)): 1395.65 mm^3; Percent inhibition of tumor volume (MC38 tumor cells; Day 32): 21.74%; Tumor inhibition (in words) (MC38 tumor cells; MC38 tumor-bearing C57BL/6 mice, Table 6, FIG. 1-3): tumor inhibition-promoting properties; CD3+ immune cell infiltration of tumor tissue (IHC, in words) [1]: significant numbers of CD3+ immune cells infiltrating tumor tissue
